# From ChEMBL document CHEMBL1201862, “PubChem BioAssay data set” (2004)
#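 The compound was tested at five concentrations on cells cultured in 96-well plates, with a 48-hour exposure period. GI50 marks 50% less growth.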 The source made the active and inactive calls. Cut-off read from the data, not from the text of the source: active = GI50 up to about 1.1 µM and inactive = higher.
# What was measured:
# Experiment in all cases: NCI tumour cell line growth inhibition, 48 h
# [1] = system: LOX IMVI
# [2] = system: 786-0
# [3] = system: HOP-62
# [4] = system: NCI-H23
# [5] = system: HCC 2998
# [6] = system: MDA-MB-231
# [7] = system: EKVX
# [8] = system: IGROV-1
# [9] = system: NCI-H226
# [10] = system: RPMI-8226
# [11] = system: HT-29
# [12] = system: MCF7
# [13] = system: M14
# [14] = system: COLO 205
# [15] = system: NCI-H460
# [16] = system: SN12C
# [17] = system: SW-620
# [18] = system: TK-10
# [19] = system: CAKI-1
# [20] = system: SF-295
# [21] = system: HL-60
# [22] = system: ACHN
# [23] = system: NCI-H522
# [24] = system: OVCAR-3
# [25] = system: SNB-19
# [26] = system: OVCAR-5
# [27] = system: RXF 393
# [28] = system: Hs-578T
# [29] = system: Malme-3M
# [30] = system: OVCAR-8
# [31] = system: T47D
# [32] = system: UACC-257
# [33] = system: SK-MEL-2
# [34] = system: NCI/ADR-RES
# [35] = system: HOP-92
# [36] = system: CCRF-CEM
# [37] = system: A498
# [38] = system: SF-268
# [39] = system: SR
# [40] = system: HCT-116
# [41] = system: KM12
# [42] = system: OVCAR-4
# [43] = system: SF-539
# [44] = system: A549
# [45] = system: HCT-15
# [46] = system: SK-OV-3
# [47] = system: BT-549
# [48] = system: MOLT-4
# [49] = system: SK-MEL-28
# [50] = system: PC-3
# [51] = system: DU-145
# [52] = system: U-251
# [53] = system: SNB-75
# [54] = system: K562
# [55] = system: UACC-62
# [56] = system: MDA-MB-435
# [57] = system: UO-31
smiles,measurement,setting,value
COc1ccc2c3c([nH]c2c1)[C@H](C=C(C)C)N1C(=O)[C@@H]2CCCN2C(=O)[C@@H]1C3 [FUMITREMORGIN],GI50,[1],> 100 µM (inactive)
same,GI50,[2],48 µM (inactive)
same,GI50,[3],47 µM (inactive)
same,GI50,[4],> 100 µM (inactive)
same,GI50,[5],37.2 µM (inactive)
same,GI50,[6],70.8 µM (inactive)
same,GI50,[7],> 100 µM (inactive)
same,GI50,[8],> 100 µM (inactive)
same,GI50,[9],> 100 µM (inactive)
same,GI50,[10],> 100 µM (inactive)
same,GI50,[11],> 100 µM (inactive)
same,GI50,[12],> 100 µM (inactive)
same,GI50,[13],> 100 µM (inactive)
same,GI50,[14],> 100 µM (inactive)
same,GI50,[15],> 100 µM (inactive)
same,GI50,[16],> 100 µM (inactive)
same,GI50,[17],> 100 µM (inactive)
same,GI50,[18],29.1 µM (inactive)
same,GI50,[19],> 100 µM (inactive)
same,GI50,[20],51.3 µM (inactive)
same,GI50,[21],> 100 µM (inactive)
same,GI50,[22],56 µM (inactive)
same,GI50,[23],> 100 µM (inactive)
same,GI50,[24],> 100 µM (inactive)
same,GI50,[25],> 100 µM (inactive)
same,GI50,[26],> 100 µM (inactive)
same,GI50,[27],38.1 µM (inactive)
same,GI50,[28],50.9 µM (inactive)
same,GI50,[29],78.3 µM (inactive)
same,GI50,[30],64.4 µM (inactive)
same,GI50,[31],> 100 µM (inactive)
same,GI50,[32],> 100 µM (inactive)
same,GI50,[33],> 100 µM (inactive)
same,GI50,[34],> 100 µM (inactive)
same,GI50,[35],38.7 µM (inactive)
same,GI50,[36],> 100 µM (inactive)
same,GI50,[37],> 100 µM (inactive)
same,GI50,[38],44 µM (inactive)
same,GI50,[39],> 100 µM (inactive)
same,GI50,[40],> 100 µM (inactive)
same,GI50,[41],> 100 µM (inactive)
same,GI50,[42],> 100 µM (inactive)
same,GI50,[43],29.6 µM (inactive)
same,GI50,[44],> 100 µM (inactive)
same,GI50,[45],> 100 µM
same,GI50,[46],29.6 µM (inactive)
same,GI50,[47],> 100 µM (inactive)
same,GI50,[48],> 100 µM (inactive)
same,GI50,[49],22.2 µM (inactive)
same,GI50,[50],> 100 µM (inactive)
same,GI50,[51],> 100 µM (inactive)
same,GI50,[52],73.1 µM (inactive)
same,GI50,[53],21.7 µM (inactive)
same,GI50,[54],> 100 µM (inactive)
same,GI50,[55],87.5 µM (inactive)
same,GI50,[56],> 100 µM (inactive)
same,GI50,[57],> 100 µM (inactive)
